Among the test systems are A549; ACHN; EKVX; HL-60; HOP-62; HT-29; KM12; M14; MCF7; MDA-MB-435; MDA-N; MOLT-4; PC-3; SK-MEL-5; SNB-19; HCC 2998; NCI-H460; NCI-H522; OVCAR-4; UO-31.
Experiment in all cases: NCI anticancer screen, dose series, 48 h

This note sets out measurements from ChEMBL document CHEMBL1201862, “PubChem BioAssay data set” (2004).

Structures are written as SMILES.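 Protocol summary: plate cells (96-well), add compound at 5 concentrations, incubate 48 h, interpolate endpoints linearly. The concentration for 50% growth inhibition is given as GI50.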 Calls of active or inactive are those of the source. Rule as the data show it: active = GI50 up to about 1.1 µM and inactive = higher. A value given as a limit tells only on which side of the number the result lay.

As to `N#Cc1nc(-c2ccccc2O)oc1N`, the GI50 was 63.5 µM (inactive) in the assay with A549; > 100 µM (inactive) in the assay with ACHN; 48.5 µM (inactive) in the assay with EKVX; > 100 µM (inactive) in the assay with HL-60; > 100 µM (inactive) with HOP-62; > 100 µM (inactive) in the assay with HT-29. Besides, the GI50 in the assay with KM12 was 42 µM (inactive); with M14 it was > 100 µM (inactive); in the assay on MCF7, 37.1 µM (inactive); with MDA-MB-435, 99.8 µM (inactive); in the assay with MDA-N it was > 100 µM (inactive); in the assay with MOLT-4, 60.4 µM (inactive). Further, the GI50 in the assay with PC-3 was 91.2 µM (inactive); in the assay on SK-MEL-5 it was 61.4 µM (inactive); in the assay on SNB-19 it was > 100 µM (inactive).

`COc1cc(C(=O)N(Cc2cccnc2)C(=S)N(Cc2cccnc2)C(=O)c2cc(OC)c(OC)c(OC)c2)cc(OC)c1OC`: the GI50 with A549 was > 100 µM (inactive); in the assay with ACHN it was > 100 µM (inactive); with EKVX, > 100 µM (inactive); in the assay on HCC 2998 it was 24.3 µM (inactive); in the assay with HL-60 it was 37.2 µM (inactive); with HOP-62 it was 37.5 µM (inactive). Moreover, the GI50 is 35.4 µM (inactive) with HT-29; 22.4 µM (inactive) in the assay with KM12; 94.8 µM (inactive) in the assay with M14; 19.9 µM (inactive) in the assay on MCF7; 31 µM (inactive) in the assay on MDA-MB-435; 36 µM (inactive) in the assay on MDA-N. Besides, the GI50 was 54.2 µM (inactive) in the assay on MOLT-4; 94 µM (inactive) with NCI-H460; 23.9 µM (inactive) in the assay with NCI-H522; 17.8 µM (inactive) in the assay with OVCAR-4; 76.9 µM (inactive) in the assay on SK-MEL-5; > 100 µM (inactive) in the assay on SNB-19. Besides, the GI50 with UO-31 is 49.8 µM (inactive).

With `NC(=O)C(=O)n1ncc(Cl)c(Cl)c1=O`, the GI50 was > 67.8 µM (inactive) in the assay on A549; 24.4 µM (inactive) in the assay on ACHN; 39.2 µM (inactive) in the assay on EKVX; 25.8 µM (inactive) in the assay on HCC 2998; 5.26 µM (inactive) in the assay on HL-60; > 100 µM (inactive) in the assay with HOP-62. In addition, the GI50 in the assay on HT-29 was 27.5 µM (inactive); with KM12, 34.1 µM (inactive); in the assay with M14, 28.8 µM (inactive); with MCF7, 57.3 µM (inactive); in the assay with MDA-MB-435, > 100 µM (inactive); in the assay with MDA-N, > 100 µM (inactive). Besides, the GI50 is 3.59 µM (inactive) in the assay on MOLT-4; 74.8 µM (inactive) in the assay on NCI-H460; 7.73 µM (inactive) with NCI-H522; 29.4 µM (inactive) in the assay on OVCAR-4; 18.3 µM (inactive) in the assay with SK-MEL-5; > 79.3 µM (inactive) in the assay with SNB-19. Moreover, the GI50 in the assay on UO-31 was 32.7 µM (inactive).

In the case of `COc1cc(/C=C2\C(=O)N(c3ccccc3)C(c3ccccc3)S2(=O)=O)cc(OC)c1OC` (stereo not given), the GI50 is 43.8 µM (inactive) in the assay with A549; > 100 µM (inactive) with ACHN; 24.2 µM (inactive) in the assay with EKVX; 64.6 µM (inactive) in the assay on HCC 2998; 7.36 µM (inactive) in the assay on HL-60; 70.6 µM (inactive) in the assay on HOP-62. Besides, the GI50 is 19.5 µM (inactive) in the assay on HT-29; 38.4 µM (inactive) in the assay on KM12; 35.2 µM (inactive) with M14; 31.2 µM (inactive) in the assay with MCF7; 27 µM (inactive) in the assay with MDA-MB-435; 16.4 µM (inactive) with MDA-N. The GI50 with MOLT-4 is 34 µM (inactive); with NCI-H460 it was 54 µM (inactive); with NCI-H522 it was 29.7 µM (inactive); with OVCAR-4, 27.5 µM (inactive); with SK-MEL-5, 17.6 µM (inactive); in the assay with SNB-19 it was 31 µM (inactive). In the assay with UO-31, the GI50 is 22.9 µM (inactive).

Consider `CCOC(=O)/C(C#N)=N\Nc1ccc(-n2c(C)nc3ccc(Br)cc3c2=O)cc1`, for which the GI50 in the assay with A549 was 50.2 µM (inactive); with ACHN, > 100 µM (inactive); with EKVX, 87.1 µM (inactive); with HL-60 it was 21.9 µM (inactive); in the assay on HOP-62, 91.6 µM (inactive); with HT-29, 69.5 µM (inactive). For the same compound, the GI50 with KM12 was 40.3 µM (inactive); in the assay on M14, 69.5 µM (inactive); in the assay on MCF7 it was 72.1 µM (inactive); with MDA-MB-435 it was 84.1 µM (inactive); with MDA-N, > 100 µM (inactive); with MOLT-4, 27.4 µM (inactive). The GI50 in the assay with NCI-H460 was 44.7 µM (inactive); in the assay on PC-3 it was 63.8 µM (inactive); in the assay with SK-MEL-5 it was 25.6 µM (inactive); in the assay with SNB-19 it was 76.6 µM (inactive); with UO-31 it was 30.5 µM (inactive).

For `CC1(C)OC[C@@H]([C@H](C=O)OCc2ccccc2)O1`, the GI50 in the assay on A549, with ACHN, in the assay with EKVX, in the assay with HOP-62, with HT-29 and in the assay on KM12 was > 100 µM (inactive) each time. Besides, the GI50 in the assay with M14, with MCF7, in the assay on MDA-MB-435, with MDA-N, with MOLT-4 and in the assay with OVCAR-4 was > 100 µM (inactive) in each case. Moreover, the GI50 in the assay with PC-3, in the assay with SK-MEL-5, with SNB-19 and in the assay on UO-31 was > 100 µM (inactive) in each case.

With `NS(=O)(=O)c1nnc(NC(=O)c2ccccc2)s1`, the GI50 in the assay on A549, in the assay with ACHN, with EKVX, in the assay with HCC 2998, in the assay on HOP-62 and with KM12 was > 100 µM (inactive) in each case. The GI50 with M14, in the assay with MCF7, with MDA-MB-435, with MDA-N, with MOLT-4 and in the assay with NCI-H460 was > 100 µM (inactive) each time. The GI50 in the assay on NCI-H522 is > 100 µM (inactive); in the assay on OVCAR-4, 0.536 µM (active); in the assay on SK-MEL-5, > 100 µM (inactive); with SNB-19 it was > 100 µM (inactive); in the assay on UO-31, > 100 µM (inactive).

Consider `CCc1n[nH]c(=O)n1CC`, for which the GI50 with A549 was > 100 µM (inactive); in the assay on ACHN it was > 100 µM (inactive); in the assay with EKVX, > 100 µM (inactive); with HCC 2998 it was > 100 µM (inactive); in the assay with HL-60, 21.7 µM (inactive); in the assay on HOP-62 it was > 100 µM (inactive). The GI50 in the assay with HT-29, in the assay on KM12, in the assay on MCF7, in the assay on MDA-MB-435, with MDA-N and with MOLT-4 was > 100 µM (inactive) throughout. Moreover, the GI50 with NCI-H460, with NCI-H522, with OVCAR-4, in the assay with SK-MEL-5, in the assay on SNB-19 and in the assay with UO-31 was > 100 µM (inactive) each time.
